Entries after “also recorded” stand apart in the source; their conditions may differ. One block for each compound: values may come before it.
Legend:
[1] = tested on: doxorubicin-induced nephrotoxicity mouse model; experiment: Renal protection in doxorubicin-induced nephrotoxicity model; assay type: in vivo, C57BL/6 mice; conditions: for serum albumin: oral prophylactic treatment day -3 to 10, doxorubicin 10 mg/kg iv day 0, day 11 (FIG. 2)
Description: C57BL/6 mice (6 to 10 week old) were treated with compounds prophylacticly from day −3 to day 10. Nephrotoxicity was induced by an intravenous injection of 10 mg/kg of doxorubicin at day 0. Serum albumin was monitored at day 11.

[2] = tested on: cyclophosphamide immunosuppressed mice; experiment: Chemoprotection in cyclophosphamide immunosuppressed mice; assay type: in vivo, C57BL/6 mice; conditions: 50 mg/kg oral day -3, -2, -1, cyclophosphamide 250 mg/kg iv day 0; for red bone marrow cell count: day +5 (FIG. 6); for white bone marrow cell count: day +5 (FIG. 7)
Description: Female C57BL/6 mice, 6 to 8 week old, were immunosuppressed by treatment with 250 mg/kg of cyclophosphamide administered intravenously at day 0. To examine the immunoprotective effect of Compound I and Compound II, mice were pre-treated orally at day −3, −2 and −1 with 50 mg/kg of each compound. Mice were sacrificed at day +5 by cardiac puncture and cervical dislocation. Then, a gross pathological observation of the femurs (as a source of bone marrow cells) was recorded. After the sacrifice, tissues were crushed in PBS buffer and cells were counted on a hemacytometer.

[3] = tested on: human proximal tubule epithelial cells (HK-2); experiment: TGF-β induced epithelial to mesenchymal transition (EMT), real-time PCR; assay type: cell-based
Description: Further analysis was undertaken to determine the effect of Compound I on EMT. The effect of Compound I on TGF-β induced EMT was analyzed on human proximal tubule epithelial cells (HK-2). To assess the progression of EMT, the pro-epithelial marker E-cadherin and the mesenchymal/pro-fibrotic markers CTGF and collagen 1 were assayed by quantitative real-time PCR. To examine the prospective efficacy of Compound I in inhibiting TGF-β-induced EMT, we first verified the ability of TGF-β to induce EMT in HK-2 cells.

UUO rats = experiment: Unilateral Ureteral Obstruction (UUO) rat model; assay type: in vivo, Sprague-Dawley rats
Description: The effect of treatment with Compound I was studied on the Unilateral Ureteral Obstruction (UUO) model, a model of kidney interstitial fibrosis. Sprague-Dawley rats were used at 6-8 weeks of age and 200-250 g in body weight. Rats were sedated by general anesthesia (isoflurane), then an incision was made in the left side of the back, and the left proximal ureter was exposed and triple-ligated. Sham-operated rats had their ureter exposed but not ligated. Rats were treated by oral gavage from day 1 to 13. Rats were sacrificed on day 14.

[4] = tested on: Normal Human Dermal Fibroblasts (NHDF); experiment: TGF-β induced CTGF production on normal human dermal fibroblasts (ELISA); assay type: cell-based; conditions: 10 ng/mL TGF-β, 48 h
Description: The effect of selected compounds on CTGF production was undertaken in NHDF. Cells were cultured in DMEM (0.5% FBS) with or without 10 ng/mL of TGF-β for 48 h in a humidified atmosphere of 95% air-5% carbon dioxide at 37° C. CTGF production in the culture medium was measured using the CTGF ELISA according to the manufacturer (Prepotech) recommendations. Table 3 represents the effect of selected representative compounds on the inhibition of TGF-βCTGF production in normal human dermal fibroblast (NHDF).

[5] = tested on: LPS-stimulated RAW264.7 (macrophage-like) cells; experiment: IL-12 production on LPS-stimulated RAW264.7 cells (ELISA); assay type: cell-based; conditions: in the presence of LPS
Description: The effect of selected compounds on IL-12 production was undertaken in RAW264.7 (macrophage-like) cells. RAW264.7 cells were cultured with 100 ng/mL of LPS in presence or absence of compounds for 21 h in a humidified atmosphere of 95% air-5% carbon dioxide at 37° C. IL-12 concentration in the culture medium was measured using the IL-12 ELISA according to the manufacturer (BD Biosciences) recommendations.

[6] = tested on: 5/6-nephrectomized (NX) rats; experiment: 5/6-nephrectomy model of kidney fibrosis; assay type: in vivo, Wistar rats
Description: Male 6-week old Wistar rats were subjected to […] (5/6-NX) or sham operations. Under ketamine anesthesia (60 to 100 mg/kg, i.p.), two-thirds of the left kidney was removed on day 0 followed by the right total nephrectomy on day 7. Sham operated rats underwent exposition of the kidneys and removal of the perirenal fat. Animals that underwent the sham operation were given vehicle (saline) and were used as controls. 5/6-NX animals were treated by gastric gavage with the vehicle or Compound I administered daily at 10 and 50 mg/kg, respectively. Animals were treated from day 1 to 132 and were sacrificed at day 133. To evaluate renal function, creatinine clearance was measured at day 21 and every subsequent three weeks. Glomerular filtration rate (GFR) was then calculated. Serum urea, serum creatinine and kidney CTGF along with histological lesion score were also evaluated.

[7] = Compound alone, normal HK-2 cells
[8] = oral treatment, mRNA, dose-response

Structure (SMILES): CCCCCCCCC(Oc1ccc(C(=O)CCCCCCC)cc1)C(=O)[O-].[Na+] (racemic) [Compound I, Sodium (RS)-2-[4-Octanoylphenoxy]decanoate]
histological micrographs of doxorubicin-induced lesions ([1]; FIG. 4): protects the kidney against doxorubicin toxicity
serum albumin [1]: inhibits the decrease of serum albumin
serum CTGF ([1]; oral treatment, p<0.01 (FIG. 5)): significant inhibition of CTGF production in serum
histological kidney lesions score ([1]; prophylactic treatment, day 11, glomerular and tubular level (FIG. 3)): reduces the kidney lesions at the glomerular and tubular level
red bone marrow cell count [2]: significant increase in red bone marrow cell count
white bone marrow cell count [2]: increase in white bone marrow cell count
basal expression of CTGF [3, 7]: downregulate basal expression
basal expression of collagen 1 [3, 7]: downregulate basal expression
E-cadherin transcript expression ([3]; TGF-β induced EMT cells (FIG. 20)): upregulation of E-cadherin
CTGF transcript expression ([3]; TGF-β induced EMT cells (FIG. 21)): downregulation
collagen 1 transcript expression ([3]; TGF-β induced EMT cells (FIG. 22)): downregulation
kidney MCP-1 (UUO rats; 50 mg/kg (FIG. 19)): significantly reduced
serum albumin (UUO rats; oral 10 and 50 mg/kg, day 1 to 13 (FIG. 18)): prevented
TGF-β expression in the kidney (UUO rats; oral treatment, mRNA): reduced TGF-β expression
expression of CTGF in the kidney (UUO rats; [8]): significant dose-response inhibition
expression of collagen 1 in the kidney (UUO rats; [8]): significant dose-response inhibition
inhibition at 7.5 µM ([4]; 7.5 μM): 41%
IL-12 production under inflammatory conditions [5]: increases IL-12 production in vitro (RAW.264 cells) only when inflammation is present
urinary excretion of MCP-1 ([6]; 10 mg/kg, day 21 to 105 (FIG. 13)): markedly reduced; also recorded: significantly decreased (from day 84)
proteinuria ([6]; 10 mg/kg, day 63 and day 84 (FIG. 10)): reduction of proteinuria; also recorded: reduces proteinuria
serum urea ([6]; 10 and 50 mg/kg oral, day 1 to day 132 (FIG. 11)): decreased serum urea
GFR expressed as percent of improvement ([6]; 10 and 50 mg/kg oral, day 84 and day 105 (FIG. 9)): improvement of GFR at day 84 and day 105
GFR expressed as percent of improvement (renal functions) ([6]; 10 and 50 mg/kg oral, day 126 (FIG. 9)): deteriorated but to a lesser extent than that observed in the non-treated animals
serum creatinine ([6]; 10 and 50 mg/kg, day 126 (FIG. 12)): decreased serum creatinine
interstitial and glomerular fibrosis/sclerosis (histology) ([6]; 10 or 50 mg/kg (FIG. 15)): reduction of interstitial and glomerular fibrosis/sclerosis
CTGF expression in the remnant kidney (real-time PCR) ([6]; oral 10 mg/kg): decreases significantly
TGF-β expression in the remnant kidney (real-time PCR) ([6]; oral 10 mg/kg): decreases significantly
collagen 1 expression in the remnant kidney (real-time PCR) ([6]; oral 10 mg/kg): decreases significantly
α-SMA expression in the remnant kidney (real-time PCR) ([6]; oral 10 mg/kg): decreases significantly
kidney CTGF expression (Northern blot) ([6]; oral 10 mg/kg (FIG. 16)): reduction of connective tissue growth factor (CTGF) expression
need for Ringer's lactate solution over the period of treatment ([6]; oral 50 mg/kg): did not require Ringer's lactate solution
survival rate ([6]; oral 10 and 50 mg/kg (FIG. 17)): increases the survival rate
kidney IL-12p40 level ([6]; oral 10 or 50 mg/kg, relative to untreated 5/6-NX group (FIG. 14)): significant (p=0.04 at 10 mg/kg) increase in IL-12p40
GFR ([6]; oral, day 126, p=0.08 (FIG. 8)): improvement of GFR

Structure (SMILES): CCCCCCCC(=O)c1ccc2c(c1)CC(C(=O)O)C2 (racemic) [Compound III, Sodium (RS)-5-Octanoylindane-2-carboxylate]
inhibition at 62.5 µM ([4]; 62.5 μM): 45%

melting point: 262 to 278 °C
Structure (SMILES): CCCCCCCCC(Oc1ccc(C(=O)CCC)cc1)C(=O)[O-].[Na+] (racemic) [Compound IX, Sodium (RS)-2-[4-Butyrylphenoxy]decanoate]

melting point: 165 to 170 °C
Structure (SMILES): CCCCCCCC(=O)c1ccc(OC(CCCCCC)C(=O)[O-])cc1.[Na+] (racemic) [Compound VIII, Sodium (RS)-2-[4-Octanoylphenoxy]octanoate]

melting point: 275 to 280 °C
Structure (SMILES): CCCCCCCCC(Oc1ccc(C(=O)CCCCC)cc1)C(=O)[O-].[Na+] (racemic) [Compound X, Sodium (RS)-2-[4-Hexanoylphenoxy]decanoate]

Structure (SMILES): CCCCCCCC(=O)c1cccc2c1CC(C(=O)O)C2 (racemic) [Compound XXVI, Sodium (RS)-4-Octanoylindane-2-carboxylate]
inhibition at 100 µM ([4]; 100 μM): 59%

Structure (SMILES): CCCCCCCC(=O)c1cccc(C(=O)[O-])c1.[Na+] [Compound II, Sodium 3-Octanoylbenzoate]
serum albumin [1]: inhibits the decrease of serum albumin
red bone marrow cell count [2]: significant increase in red bone marrow cell count
white bone marrow cell count [2]: increase in white bone marrow cell count
